Biological target: T1, Stearoyl-CoA desaturase (Homo sapiens, UniProt O00767)
T1 sequence (O00767 whole entry): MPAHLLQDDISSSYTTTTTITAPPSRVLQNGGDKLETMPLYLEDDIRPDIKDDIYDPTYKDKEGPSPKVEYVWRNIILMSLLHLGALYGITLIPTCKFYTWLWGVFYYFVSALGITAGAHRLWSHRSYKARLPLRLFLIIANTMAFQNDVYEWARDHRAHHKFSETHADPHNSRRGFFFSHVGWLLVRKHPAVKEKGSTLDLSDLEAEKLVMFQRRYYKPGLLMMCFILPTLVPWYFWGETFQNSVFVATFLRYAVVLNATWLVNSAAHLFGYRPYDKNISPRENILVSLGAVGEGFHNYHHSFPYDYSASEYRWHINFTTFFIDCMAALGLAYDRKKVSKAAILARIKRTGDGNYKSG
Test: Inhibition of human SCD1

| IC50 | SMILES |
| --- | --- |
| 260 nM | CC(C)CNC(=O)c1nccnc1NCC(=O)N1CCC(Oc2ccccc2Cl)CC1 |
| 110 nM | O=C(NCc1ccccn1)c1nccnc1NCC(=O)N1CCC(Oc2ccccc2Cl)CC1 |
| 110 nM | O=C(NCc1ccncc1)c1nccnc1NCC(=O)N1CCC(Oc2ccccc2Cl)CC1 |
| 550 nM | O=C(Nc1ccccc1)c1nccnc1NCC(=O)N1CCC(Oc2ccccc2Cl)CC1 |
| 39 nM | COC(=O)c1nccnc1NCC(=O)N1CCC(Oc2ccccc2Cl)CC1 |
| 210 nM | O=Cc1nccnc1NCC(=O)N1CCC(Oc2ccccc2Cl)CC1 |
| 340 nM | N#Cc1nccnc1NCC(=O)N1CCC(Oc2ccccc2Cl)CC1 |
| 30 nM | O=C(CNc1nccnc1Cl)N1CCC(Oc2ccccc2Cl)CC1 |
| 6300 nM | CNC(=O)c1nccnc1NCC(=O)N1CCC(Oc2ccccc2)CC1 |
| 58 nM | CNC(=O)c1nccnc1NCC(=O)N1CCC(Oc2ccccc2Br)CC1 |
| 38 nM | CNC(=O)c1nccnc1NCC(=O)N1CCC(Oc2cc(Cl)ccc2Cl)CC1 |
| 560 nM | O=C(NCc1ccccc1)c1ncccc1NCC(=O)N1CCC(Oc2ccccc2Cl)CC1 |
| 140 nM | O=C(NCc1ccccc1)c1nccnc1NCC(=O)N1CCC(Oc2ccccc2Cl)CC1 |
| 7300 nM | O=C(NCc1ccccc1)c1cccc(NCC(=O)N2CCC(Oc3ccccc3C(F)(F)F)CC2)n1 |
| > 1000 nM | CNC(=O)c1cccnc1NCC(=O)N1CCC(Oc2ccccc2C(F)(F)F)CC1 |
| 97 nM | CNC(=O)c1ncccc1NCC(=O)N1CCC(Oc2ccccc2C(F)(F)F)CC1 |
| 110 nM | CCNC(=O)c1ncccc1NCC(=O)N1CCC(Oc2ccccc2C(F)(F)F)CC1 |

| IC50 | SMILES |
| --- | --- |
| 430 nM | O=C(NCc1cccnc1)c1ncccc1NCC(=O)N1CCC(Oc2ccccc2C(F)(F)F)CC1 |
| 350 nM | O=C(NCc1ccncc1)c1ncccc1NCC(=O)N1CCC(Oc2ccccc2C(F)(F)F)CC1 |
| 780 nM | O=C(NCCc1ccccc1)c1ncccc1NCC(=O)N1CCC(Oc2ccccc2C(F)(F)F)CC1 |
| > 10000 nM | CN(C)C(=O)c1ncccc1NCC(=O)N1CCC(Oc2ccccc2C(F)(F)F)CC1 |
| > 10000 nM | O=C(NC1CCCC1)c1ncccc1NCC(=O)N1CCC(Oc2ccccc2C(F)(F)F)CC1 |
| 51 nM | CNC(=O)c1nccnc1NCC(=O)N1CCC(Oc2ccccc2Cl)CC1 |
| 39 nM | CCNC(=O)c1nccnc1NCC(=O)N1CCC(Oc2ccccc2Cl)CC1 |
| 35 nM | CNC(=O)c1nccnc1NCC(=O)N1CCC(Oc2cc(F)cc(F)c2Cl)CC1 |
| > 1000 nM | CNC(=O)c1nccnc1NCC(=O)N1CCC(C(=O)c2ccccc2)CC1 |
| 100 nM | O=C(NCCO)c1nccnc1NCC(=O)N1CCC(Oc2ccccc2Cl)CC1 |
| 51 nM | CNC(=O)c1nccnc1NCC(=O)N1CCC(Oc2cc(F)ccc2Cl)CC1 |
| 99 nM | O=C(NCc1cccnc1)c1nccnc1NCC(=O)N1CCC(Oc2ccccc2Cl)CC1 |
| 90 nM | NC(=O)c1ncccc1NCC(=O)N1CCC(Oc2ccccc2C(F)(F)F)CC1 |
| 390 nM | CCCNC(=O)c1ncccc1NCC(=O)N1CCC(Oc2ccccc2C(F)(F)F)CC1 |
| 580 nM | O=C(NCc1ccccc1)c1ccccc1NCC(=O)N1CCC(Oc2ccccc2Cl)CC1 |
| 120 nM | O=C(NCCO)c1ncccc1NCC(=O)N1CCC(Oc2ccccc2C(F)(F)F)CC1 |
| 94 nM | NC(=O)c1nccnc1NCC(=O)N1CCC(Oc2ccccc2Cl)CC1 |
